Experimental data as given in patent US20170122958A1, “Enzymes Functional Probes” (University of Dundee, priority 2013, published 2017).

Tests used:
Brd2(1) Leu110-Ile = Brd2(1) Leu110-Ile (Homo sapiens, UniProt P25440, L110I); assay: DSF thermal shift; format: binding; parameters: Plasmids of the eight single BET bromodomain constructs Brd2(1), Brd2(2), Brd3(1), Brd3(2); His6 (N); made in house; host or cells: E. coli BL21(DE3); conditions: mutant
Brd2(2) Leu383-Ile = Brd2(2) Leu383-Ile (Homo sapiens, UniProt P25440, L383I); assay: DSF thermal shift; format: binding; parameters: Plasmids of the eight single BET bromodomain constructs Brd2(1), Brd2(2), Brd3(1), Brd3(2); His6 (N); made in house; host or cells: E. coli BL21(DE3); conditions: mutant
Brd2(2) Leu383-Ile, sequence (P25440 344-453 L383I limits assumed): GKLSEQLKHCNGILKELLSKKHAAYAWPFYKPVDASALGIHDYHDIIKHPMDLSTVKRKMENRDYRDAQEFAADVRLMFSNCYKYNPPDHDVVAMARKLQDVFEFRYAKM

[1] = target: T1, double Leu(94,387)/Ala mutant of GFP-Brd4 (Homo sapiens, UniProt O60885, L387A/L94A); assay: FRAP in transfected U2OS cells; format: cell-based; conditions: double Leu(94,387)/Ala mutant GFP-Brd4, 1 μM compound
T1 construct: U2OS cells transfected with full-length human GFP-brd4; expressed in transfected cells; host or cells: U2OS human osteosarcoma cells
Experimental: To establish whether selectivity could also be observed within cells, we developed fluorescence recovery after photobleaching (FRAP) assays using full length human GFP-BRD4 transfected into human osteosarcoma cells (U2OS). […] The data shown represent the mean±SEM (n=35-50). Statistical significance was determined by one-tailed t tests: *<0.05; **P<0.01; ***P<0.001; n.s. not significant.
Fluorescence recovery after photobleaching (FRAP) experiments were performed in human osteosarcoma U2OS cells transfected with mammalian expression constructs encoding wild type and mutant GFP chimeras of Brd4. Cells were cultured in DMEM (Gibco) supplemented with fetal bovine serum, Penicillin/Streptamycin and L-Glutamine. Cells were seeded into glass bottom dishes (Willco) to about 40% confluency and transfected with the constructs using Effectene (QIAGEN) at least 18 h before the experiment. […] FRAP studies were performed using a DeltaVision Core mounted on an Olympus IX70 stand with a 60×1.4NA plan apo objective lens equipped with a heated chamber set to 37° C. and a Quantifiable Laser Module (QLM) with 10 mW 488 nm solid state laser delivering a diffraction limited spot to the centre field of view. […] FRAP data was analysed using the SoftWorX software. It was fitted to a 2-dimensional recovery curve using the method of Axelrod as implemented within the software and half-times of recovery were calculated.

Brd2(1) Leu110-Ile, sequence (P25440 74-180 L110I limits assumed): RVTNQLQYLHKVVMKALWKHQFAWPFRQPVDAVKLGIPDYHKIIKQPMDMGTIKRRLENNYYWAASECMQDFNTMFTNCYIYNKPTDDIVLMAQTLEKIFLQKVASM

SMILES	Thermal stabilisation brd2(1)L110I (Brd2(1) Leu110-Ile) [°C]	ΔTm Brd2(1)*(Leu110-Ile) (Brd2(1) Leu110-Ile) [K]	Thermal stabilisation brd2(1)L110I (Brd2(1) Leu110-Ile; listed as compound 7) [°C]	Thermal stabilisation brd2(2)V383I (Table 1); Brd2(2) Leu383-Ile (text) (Brd2(2) Leu383-Ile) [°C]	ΔTm Brd2(2)*(Leu383-Ile) (Brd2(2) Leu383-Ile) [K]	Thermal stabilisation brd2(2)V383I (Table 1); Brd2(2) Leu383-Ile (text) (Brd2(2) Leu383-Ile; listed as compound 7) [°C]	Fluorescence recovery after photobleaching (recovery time) [1]
COC(=O)[C@H](C)[C@@H]1N=C(c2ccc(Cl)cc2)c2cc(OC)ccc2-n2c(C)nnc21 (racemic) [Compound 7, (+−)-methyl (R)-2-((S)-6-(4-chlorophenyl)-8-methoxy-1-methyl-4H-benzo[f][1,2,4]triazolo[4,3-a][1,4]diazepin-4-yl)propanoate]	5.7 ± 0.7	5.7 ± 0.7	5.7	9.6 ± 0.1	9.6 ± 0.1	9.6	–
CC[C@@H](C(=O)OC)[C@@H]1N=C(c2ccc(Cl)cc2)c2cc(OC)ccc2-n2c(C)nnc21 (racemic) [Compound 11, (+−)-methyl (R)-2-((S)-6-(4-chlorophenyl)-8-methoxy-1-methyl-4H-benzo[f][1,2,4]triazolo[4,3-a][1,4]diazepin-4-yl)butanoate]	–	–	–	–	–	–	recovery times comparable to the iBET control
